Measured values as given in patent publication US20240336612A1, “BRM Targeting Compounds And Associated Methods Of Use” (Prelude Therapeutics Incorporated, priority 2021, published 2024).

Experiments:
[1] = biological target: T1, SMARCA2 (Homo sapiens, UniProt P51531); experiment: SMARCA2 HiBiT degradation assay in HeLa cells; type: cell-based; settings: 18 hours incubation; for DC50: read-out: DC50 (SM2-HeLa), SMARCA2 degradation potency; for Dmax: read-out: Dmax % (SM2-HeLa), maximum SMARCA2 degradation within the concentrations tested
T1 construct: SMARCA2-HiBiT knock-in Hela monoclonal cell (CS302366); host or cells: HeLa (HiBiT knock-in monoclonal line)
Protocol: (§1) SMARCA2 HiBiT and SMARCA4 HiBiT Degradation Assay (cellular)
(§2) Preparation of SMARCA2/4-HiBiT Knock-In Cells
(§3) SMARCA2-HiBiT knock-in Hela monoclonal cell (CS302366) and SMARCA4-HiBiT knock-in Hela monoclonal cell (CS3023226) were purchased from Promega. The heterozygous HiBiT-knock-in was confirmed by sanger sequence in both SMARCA2-HiBiT and SMARCA4-HiBiT monoclonal cells.
(§4) SMARCA2 HiBiT and SMARCA4 HiBiT Degradation Assay in HeLa Cells
(§5) Dispense 10 μL aliquot of prepared Hela-SMARCA2-HiBiT or Hela-SMARCA4-HiBiT cells (1:1 ratio of cells:Trypan Blue (#1450013, Bio-Rad)) onto cell counting slide (#145-0011, Bio-Rad) and obtain cell density and cell viability using cell counter (TC20, Bio-Rad). Remove appropriate volume of resuspended cells from culture flask to accommodate 2500 cells/well @ 20 μL/well. Transfer Hela-HiBiT cells to 50 ml conical (#430290, Corning). Spin down at 1000 rpm for 5 min using tabletop centrifuge (SPINCHRON 15, Beckman). Discard supernatant and resuspend cell pellet in modified EMEM (#30-2003, ATCC) cell culture media containing 10% FBS (F2422-500ML, Sigma), and 1× Penicillin/Streptomycin (200 g/l) (30-002-CI, Corning) to a cell density of 125,000 cells/ml. Dispense 20 μL of resuspended Hela-HiBit cells per well in 384-well TC treated plate (#12-565-343, Thermo Scientific) using standard cassette (#50950372, Thermo Scientific) on Multidrop Combi (#5840310, Thermo Scientific) inside laminar flow cabinet. Dispense test compounds onto plates using digital liquid dispenser (D300E, Tecan). Incubate plates in humidified tissue culture incubator @37° C. for 18 hours. Add 20 ul of prepared Nano-Glo® HiBiT Lytic detection buffer (N3050, Promega) to each well of 384-well plate using small tube cassette (#24073295, Thermo Scientific) on Multidrop Combi, incubate @ RT for 30-60 min. Read plates on microplate reader (Envision 2105, PerkinElmer) using 384 well Ultra-Sensitive luminescence mode. Raw data files and compound information reports are swept into centralized data lake and deconvoluted using automated scripts designed by TetraScience, Inc. Data analysis, curve-fitting and reporting done in Dotmatics Informatics Suite using Screening Ultra module.
(§6) The results are shown below in Table 4 for the HiBiT assay. In Table 4, the DC50/Dmax% (SM2-HeLa) refers to SMARCA2 degradation potency/maximum SMARCA2 degradation within the concentrations tested in HeLa HiBiT assay. In Table 4, the DC50/Dmax% (SM4-HeLa) refers to SMARCA4 degradation potency/maximum SMARCA4 degradation within the concentrations tested in HeLa HiBiT assay.

[2] = biological target: T2, SMARCA4 (Homo sapiens, UniProt P51532); experiment: SMARCA4 HiBiT degradation assay in HeLa cells; type: cell-based; settings: 18 hours incubation; for DC50: read-out: DC50 (SM4-HeLa), SMARCA4 degradation potency; for Dmax: read-out: Dmax % (SM4-HeLa), maximum SMARCA4 degradation within the concentrations tested
T2 construct: SMARCA4-HiBiT knock-in Hela monoclonal cell (CS3023226); host or cells: HeLa (HiBiT knock-in monoclonal line)
Protocol: as §1, §2, §3, §4, §5, §6

T1 sequence (P51531 whole entry): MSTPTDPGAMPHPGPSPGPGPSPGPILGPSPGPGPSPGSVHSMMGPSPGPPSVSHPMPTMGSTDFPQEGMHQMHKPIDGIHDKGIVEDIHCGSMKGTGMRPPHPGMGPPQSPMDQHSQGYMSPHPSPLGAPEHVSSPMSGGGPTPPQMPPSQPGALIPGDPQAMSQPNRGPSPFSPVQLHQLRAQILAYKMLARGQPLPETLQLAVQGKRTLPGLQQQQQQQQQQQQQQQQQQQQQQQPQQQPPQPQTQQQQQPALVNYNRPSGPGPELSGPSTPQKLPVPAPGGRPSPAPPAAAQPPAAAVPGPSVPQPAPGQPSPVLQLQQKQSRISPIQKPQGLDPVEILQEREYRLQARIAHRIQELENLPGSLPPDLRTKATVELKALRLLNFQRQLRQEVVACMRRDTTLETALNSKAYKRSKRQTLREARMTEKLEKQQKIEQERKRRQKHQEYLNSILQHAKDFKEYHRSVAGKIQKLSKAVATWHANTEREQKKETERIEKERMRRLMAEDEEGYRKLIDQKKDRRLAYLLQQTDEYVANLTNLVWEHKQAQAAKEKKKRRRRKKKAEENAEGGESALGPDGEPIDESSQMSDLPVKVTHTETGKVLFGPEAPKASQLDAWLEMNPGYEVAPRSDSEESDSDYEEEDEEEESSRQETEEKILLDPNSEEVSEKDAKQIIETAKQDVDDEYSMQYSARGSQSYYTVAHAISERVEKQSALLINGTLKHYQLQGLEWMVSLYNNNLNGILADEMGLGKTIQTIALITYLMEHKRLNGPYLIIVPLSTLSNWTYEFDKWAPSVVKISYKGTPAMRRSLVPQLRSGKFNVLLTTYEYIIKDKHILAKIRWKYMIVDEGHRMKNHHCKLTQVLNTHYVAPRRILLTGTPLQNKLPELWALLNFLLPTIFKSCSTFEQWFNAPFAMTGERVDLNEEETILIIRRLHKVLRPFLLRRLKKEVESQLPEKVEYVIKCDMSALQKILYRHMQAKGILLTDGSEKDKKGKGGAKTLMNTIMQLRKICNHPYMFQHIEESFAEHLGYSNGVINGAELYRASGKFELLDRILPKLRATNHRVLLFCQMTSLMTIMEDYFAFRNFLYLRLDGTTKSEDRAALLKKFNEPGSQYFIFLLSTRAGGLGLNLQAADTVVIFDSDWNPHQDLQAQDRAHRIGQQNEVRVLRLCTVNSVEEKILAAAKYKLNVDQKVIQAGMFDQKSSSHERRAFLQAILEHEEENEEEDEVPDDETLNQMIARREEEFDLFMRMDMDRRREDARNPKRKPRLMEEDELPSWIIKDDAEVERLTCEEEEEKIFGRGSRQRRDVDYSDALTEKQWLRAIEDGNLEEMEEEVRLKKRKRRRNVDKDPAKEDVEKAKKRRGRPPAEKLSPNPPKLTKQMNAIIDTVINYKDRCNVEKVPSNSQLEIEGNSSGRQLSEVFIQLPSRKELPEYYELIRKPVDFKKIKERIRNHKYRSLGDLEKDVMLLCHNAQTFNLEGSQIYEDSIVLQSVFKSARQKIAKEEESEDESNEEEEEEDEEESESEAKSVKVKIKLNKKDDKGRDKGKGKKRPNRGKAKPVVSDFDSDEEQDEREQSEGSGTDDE
T2 sequence (P51532 whole entry): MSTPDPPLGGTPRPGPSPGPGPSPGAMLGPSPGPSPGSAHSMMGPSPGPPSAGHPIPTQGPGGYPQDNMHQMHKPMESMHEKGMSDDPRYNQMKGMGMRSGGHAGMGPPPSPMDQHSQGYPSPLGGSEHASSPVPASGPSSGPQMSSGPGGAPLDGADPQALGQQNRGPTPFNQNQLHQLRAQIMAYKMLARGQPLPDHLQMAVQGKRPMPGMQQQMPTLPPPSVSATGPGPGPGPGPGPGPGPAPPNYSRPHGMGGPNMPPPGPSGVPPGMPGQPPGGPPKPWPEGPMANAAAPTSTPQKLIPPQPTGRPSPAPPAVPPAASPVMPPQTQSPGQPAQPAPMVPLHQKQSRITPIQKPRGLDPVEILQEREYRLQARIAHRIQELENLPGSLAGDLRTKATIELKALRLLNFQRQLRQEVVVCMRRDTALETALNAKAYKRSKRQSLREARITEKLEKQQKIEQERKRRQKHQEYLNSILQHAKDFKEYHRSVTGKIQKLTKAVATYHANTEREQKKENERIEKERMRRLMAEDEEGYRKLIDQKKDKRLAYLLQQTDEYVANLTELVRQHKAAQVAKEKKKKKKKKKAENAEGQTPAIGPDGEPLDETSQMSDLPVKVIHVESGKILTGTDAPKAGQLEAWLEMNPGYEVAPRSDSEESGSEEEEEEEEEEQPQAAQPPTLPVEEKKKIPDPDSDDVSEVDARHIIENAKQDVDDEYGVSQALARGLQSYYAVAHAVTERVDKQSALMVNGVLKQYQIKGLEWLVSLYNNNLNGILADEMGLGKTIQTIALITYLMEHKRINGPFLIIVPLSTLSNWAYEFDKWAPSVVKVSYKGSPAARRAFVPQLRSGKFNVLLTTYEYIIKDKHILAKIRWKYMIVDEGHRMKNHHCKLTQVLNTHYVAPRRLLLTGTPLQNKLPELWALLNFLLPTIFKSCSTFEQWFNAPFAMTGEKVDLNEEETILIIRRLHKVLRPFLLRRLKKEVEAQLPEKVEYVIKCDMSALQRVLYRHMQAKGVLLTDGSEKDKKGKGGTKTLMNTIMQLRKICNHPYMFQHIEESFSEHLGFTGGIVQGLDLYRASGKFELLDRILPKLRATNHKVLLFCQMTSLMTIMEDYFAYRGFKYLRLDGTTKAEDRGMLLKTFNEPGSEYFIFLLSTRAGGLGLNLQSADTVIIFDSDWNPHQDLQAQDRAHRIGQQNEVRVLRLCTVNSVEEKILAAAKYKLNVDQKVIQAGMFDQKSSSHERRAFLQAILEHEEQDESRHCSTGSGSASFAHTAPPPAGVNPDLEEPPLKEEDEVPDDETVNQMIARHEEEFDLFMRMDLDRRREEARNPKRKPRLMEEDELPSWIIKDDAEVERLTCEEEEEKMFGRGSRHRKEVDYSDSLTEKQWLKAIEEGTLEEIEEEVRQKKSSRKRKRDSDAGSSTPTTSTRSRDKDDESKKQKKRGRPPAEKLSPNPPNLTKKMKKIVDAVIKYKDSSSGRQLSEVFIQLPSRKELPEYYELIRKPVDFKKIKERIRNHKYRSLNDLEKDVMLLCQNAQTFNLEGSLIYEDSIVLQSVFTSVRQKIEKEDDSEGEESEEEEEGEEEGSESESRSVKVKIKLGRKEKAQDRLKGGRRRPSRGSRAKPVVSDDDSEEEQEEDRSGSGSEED

Row | SMILES | DC50 [1] [nM] | Dmax [1] [%] | DC50 [2] [nM] | Dmax [2] [%]
1 | Cc1ncsc1-c1ccc([C@H](C)NC(=O)[C@@H]2C[C@@H](O)CN2C(=O)[C@@H](c2cc(OCCN3CCC(N4CCC5(CC4)CNc4nnc(-c6ccccc6O)cc4N5)CC3)no2)C(C)C)cc1 [Example 2, (2S,4R)-4-hydroxy-1-((R)-2-(3-(2-(4-(3′-(2-hydroxyphenyl)-7′,8′-dihydro-5′H-spiro[piperidine-4,6′-pyrazino[2,3-c]pyridazin]-1-yl)piperidin-1-yl)ethoxy)isoxazol-5-yl)-3-methylbutanoyl)-N-((S)-1-(4-(4-methylthiazol-5-yl)phenyl)ethyl) pyrrolidine-2-carboxamide] | < 100 | 50 to 75 | < 100 | > 75
2 | Cc1ncsc1-c1ccc([C@H](C)NC(=O)[C@@H]2C[C@@H](O)CN2C(=O)[C@@H](c2cc(OCCN3CCC(N4CCC5(CC4)CNc4nnc(-c6ccccc6O)cc4N5)C3)no2)C(C)C)cc1 (stereo partly drawn) [Example 6, (2S,4R)-4-hydroxy-1-((2R)-2-(3-(2-(3-(3′-(2-hydroxyphenyl)-7′,8′-dihydro-5′H-spiro [piperidine-4,6′-pyrazino[2,3-c]pyridazin]-1-yl)pyrrolidin-1-yl)ethoxy)isoxazol-5-yl)-3-methylbutanoyl)-N-((S)-1-(4-(4-methylthiazol-5-yl)phenyl)ethyl) pyrrolidine-2-carboxamide] | 1000 to 10000 | ≤ 50 | 100 to 1000 | > 75
3 | Cc1ncsc1-c1ccc([C@H](C)NC(=O)[C@@H]2C[C@@H](O)CN2C(=O)[C@@H](c2cc(OCCN3CCC(CN4CCC5(CC4)CNc4nnc(-c6ccccc6O)cc45)CC3)no2)C(C)C)cc1 [Example 3, (2S,4R)-4-hydroxy-1-((R)-2-(3-(2-(4-((3′-(2-hydroxyphenyl)-6′,7′-dihydrospiro[piperidine-4,5′-pyrrolo[2,3-c]pyridazin]-1-yl)methyl)piperidin-1-yl)ethoxy)isoxazol-5-yl)-3-methylbutanoyl)-N-((S)-1-(4-(4-methylthiazol-5-yl)phenyl)ethyl) pyrrolidine-2-carboxamide] | < 100 | 50 to 75 | ≥ 10000 | ≤ 50
4 | Cc1ncsc1-c1ccc([C@H](C)NC(=O)[C@@H]2C[C@@H](O)CN2C(=O)[C@@H](c2cc(OCCN3CCC(N4CCCC5(CNc6nnc(-c7ccccc7O)cc6N5)C4)C3)no2)C(C)C)cc1 (stereo partly drawn) [Example 4, (2S,4R)-4-hydroxy-1-((2R)-2-(3-(2-(3-(3′-(2-hydroxyphenyl)-7′,8′-dihydro-5′H-spiro[piperidine-3,6′-pyrazino[2,3-c]pyridazin]-1-yl)pyrrolidin-1-yl)ethoxy)isoxazol-5-yl)-3-methylbutanoyl)-N-((S)-1-(4-(4-methylthiazol-5-yl)phenyl)ethyl) pyrrolidine-2-carboxamide] | < 100 | 50 to 75 | < 100 | > 75
5 | Cc1ncsc1-c1ccc([C@H](C)NC(=O)[C@@H]2C[C@@H](O)CN2C(=O)[C@@H](c2cc(OCCN3CCC(N4CCC5(CC4)CNc4nnc(-c6ccccc6O)cc45)C3)no2)C(C)C)cc1 (stereo partly drawn) [Example 1, (2S,4R)-4-hydroxy-1-((2R)-2-(3-(2-(3-(3′-(2-hydroxyphenyl)-6′,7′-dihydrospiro[piperidine-4,5′-pyrrolo[2,3-c]pyridazin]-1-yl)pyrrolidin-1-yl)ethoxy)isoxazol-5-yl)-3-methylbutanoyl)-N-((S)-1-(4-(4-methylthiazol-5-yl)phenyl)ethyl) pyrrolidine-2-carboxamide] | < 100 | > 75 | ≥ 10000 | ≤ 50
6 | Cc1ncsc1-c1ccc([C@H](C)NC(=O)[C@@H]2C[C@@H](O)CN2C(=O)[C@@H](c2cc(OCCN3CCC(CN4CCC5(CC4)CNc4nnc(-c6ccccc6O)cc4N5)CC3)no2)C(C)C)cc1 [Example 8, (2S,4R)-4-hydroxy-1-((R)-2-(3-(2-(4-((3′-(2-hydroxyphenyl)-7′,8′-dihydro-5′H-spiro [piperidine-4,6′-pyrazino[2,3-c]pyridazin]-1-yl)methyl)piperidin-1-yl)ethoxy)isoxazol-5-yl)-3-methylbutanoyl)-N-((S)-1-(4-(4-methylthiazol-5-yl)phenyl)ethyl) pyrrolidine-2-carboxamide] | < 100 | > 75 | < 100 | > 75
7 | Cc1ncsc1-c1ccc([C@H](C)NC(=O)[C@@H]2C[C@@H](O)CN2C(=O)[C@@H](c2cc(OCCN3CCC(N4CCCC5(CNc6nnc(-c7ccccc7O)cc6N5)C4)CC3)no2)C(C)C)cc1 (stereo partly drawn) [Example 5, (2S,4R)-4-hydroxy-1-((2R)-2-(3-(2-(4-(3′-(2-hydroxyphenyl)-7′,8′-dihydro-5′H-spiro[piperidine-3,6′-pyrazino[2,3-c]pyridazin]-1-yl)piperidin-1-yl)ethoxy)isoxazol-5-yl)-3-methylbutanoyl)-N-((S)-1-(4-(4-methylthiazol-5-yl)phenyl)ethyl) pyrrolidine-2-carboxamide] | < 100 | 50 to 75 | < 100 | > 75
8 | Cc1ncsc1-c1ccc([C@H](C)NC(=O)[C@@H]2C[C@@H](O)CN2C(=O)[C@@H](c2cc(OCCN3CCC(CN4CCCC5(CNc6nnc(-c7ccccc7O)cc6N5)C4)CC3)no2)C(C)C)cc1 (stereo partly drawn) [Example 7, (2S,4R)-4-hydroxy-1-((2R)-2-(3-(2-(4-((3′-(2-hydroxyphenyl)-7′,8′-dihydro-5′H-spiro[piperidine-3,6′-pyrazino[2,3-c]pyridazin]-1-yl)methyl)piperidin-1-yl)ethoxy)isoxazol-5-yl)-3-methylbutanoyl)-N-((S)-1-(4-(4-methylthiazol-5-yl)phenyl)ethyl) pyrrolidine-2-carboxamide] | < 100 | > 75 | < 100 | > 75
